Results as given in US20250145715A1, “B7-H3 TARGETING FUSION PROTEINS AND METHODS OF USE THEREOF” (GT Biopharma, Inc., priority 2021, published 2025).

Tested on: MA-148-luc ovarian cancer cells
Assay: Xenogeneic ovarian cancer MA-148-Luc model
Assay type: in vivo, NSG mice
Source text: FIGS. 32A-32F illustrate that cam1615B7-H3 TriKE is efficacious in subduing ovarian tumor progression in vivo. FIG. 32A is a diagram showing xenogeneic ovarian cancer MA-148-Luc model in female NSG mice (N=5 per treatment group). FIG. 32B is a graph showing bioluminescent imaging indicative of tumor progression, measured as Total flux radiance (p/s), over three weeks in the MA148 mouse model treated with enriched NK cells and noted treatments. FIG. 32C is a graph illustrating bioluminescent imaging results on day 21 data point. FIG. 32D is a photograph illustrating total flux radiance (p/s) on day 21. FIG. 32E is a scatter plot of CD56+CD3− NK cell numbers from peritoneal lavages for the rhIL-15 and cam1615B7-H3 TriKE treatment groups at D21. FIG. 32F is a scatter plot of CD16 media fluorescence intensity on NK cells from peritoneal lavages for the rhIL-15 and cam1615B7-H3 TriKE treatment groups at day 21. * p<0.05, ** p<0.01.
MA-148-Luc ovarian cancer cells were incorporated into a previously described NK cell xenogeneic mouse model system. NSG mice (NOD.Cg-Prkdcscid Il2rgtm1Wjl/SzJ, n=5/group) were injected IP with 2.0×10^5 MA-148-luc cells and then three days later conditioned with low-dose total body irradiation (225 cGy). The following day, all groups received highly enriched NK cells (PBMC magnetically CD3 and CD19 depleted), equivalent to 1 million NK cells/mouse, and were started on the drug regimen. A single course of treatment consisted of an IP injection of […] of TriKE or 5 μg rhIL-15 given every day of the week (Monday-Friday) for three weeks. MA-148-luc cells are a subline of MA-148 that have been transfected with a luciferase reporter gene, allowing for imaging of the mice each week to determine their bioluminescent activity and to monitor tumor progression. Briefly, mice were injected with 100 μL of 30 mg/mL luciferin substrate 10 min prior to imaging and then anesthetized via inhalation of isoflurane gas (25). Mice were then imaged using the Xenogen Ivis 100 imaging system and analyzed with Living Image 2.5 software (Xenogen Corporation, Alameda, CA, USA). At the end of the experiment (day 21), all the animals were sacrificed, and postmortem peritoneal lavages were performed to analyze human NK cell content by flow cytometry. Animal imaging and analysis was performed at the University of Minnesota Imaging Center. Mouse studies were carried after approval (protocol 1908-37330A) from the Institutional Animal Care and Use Committee (IACUC) at the University of Minnesota and in compliance with their guidelines.
As illustrated in FIGS. 32A-32F, cam1615B7-H3 TriKE mediates anti-tumor activity in vivo. Determination of in vivo activity is a critical step for translation. However, prior to evaluating the ability of the cam1615B7-H3 TriKE to induce function against tumor the potential for toxicity was assessed. To do this NSG mice were irradiated, engrafted with 1 million NK cells, treated with nothing, IL-15, or cam1615B7-H3 for three weeks, and weights were tracked over the course of 90 days post initial treatment. […] This is not surprising given the low toxicity profile of IL-15 and the safety profile of B7-H3. […] In this model, human NK cells and human high grade serous MA-148-luc cells are injected into the peritoneal cavity of NSG mice.

cam1615B7-H3: second-generation TriKE: humanized camelid anti-CD16 VHH, human wild-type IL-15, anti-B7-H3 mAb 376.96 scFv; SEQ ID NO:1
tumor progression (bioluminescence), longitudinal (IP 30 g of TriKE or 5 μg rhIL-15 Monday-Friday for three weeks, enriched NK cells, vs IL-15 treated or tumor only): lowest tumor progression
PD-1 expression (TriKE-treated vs IL-15-treated mice): lower (but not significant) trend of expression
CD16 expression on NK cells from peritoneal lavages (day 21, vs IL-15 treated mice): higher levels of CD16 expression than IL-15 treated mice
tumor burden at day 21 (day 21, vs tumor only group): significantly lower tumor burden than the tumor only group
disease outcome of treated animals (treatment not curative within this model): stable disease
